Test results: patent publication US7351875B2, “FcγRIIa transgenic animal model for autoimmune disease” (Trillium Therapeutics, Inc., priority 2002, dated 2008)

Experiments:
[1] = test system: non transgenic DBA/1 mice with CIA; conditions: Neurath, Hildner et al. 1999; cited from earlier work
[2] = test system: FcγRIIa transgenic mice with CIA; experiment: Collagen-induced arthritis (CIA) in FcγRIIa transgenic mice, arthritis index; assay type: in vivo, mouse; conditions: FIG. 14
Source text: In transgenic mouse models of the present invention the following mice strains were used DBA/1 (H-2^q) males at 8-12 weeks old, C57BL/6 (H-2^b) and (C57BL/6×SJ (H-2^b/s) males or females at 8-15 weeks old, and transgenic mice expressing the FcγRIIa human transgene on platelets, neutrophils and macrophages at physiological levels, (as described in McKenzie et al. 1999). Transgenic males or females at 12-15 weeks old were used in collagen-induced arthritis (CIA) experiments, and >25 weeks old for the spontaneous autoimmune disease studies. All mice were bred and kept in clean conditions and were fed a standard diet and water ad libitum. The mouse is characterised in the published paper by McKenzie et al. 1999, listed in references.
Complete Freund's Adjuvant (CFA) was prepared by mixing 100 mg heat-killed M tuberculosis H37 Ra (Difco Laboratories, Detroit, Mich.) ground in 20 ml Incomplete Freund's Adjuvant (Difco Laboratories, Detroit, Mich.). […]
Mice were examined 2-3 times per week from day 14 onwards. […] The score of each mouse was calculated for the four limbs (maximum total score of 12 for each mouse) (Campbell et al. 1997). […]
The score for each mouse was calculated by adding the scores of the four limbs (maximum score of 12 for each mouse) (Campbell et al. 1997). […]

In the case of CN(Cc1cnc2nc(N)nc(N)c2n1)c1ccc(C(=O)N[C@@H](CCC(=O)O)C(=O)O)cc1 [methotrexate], the “delay of CIA in DBA/1 mice” value [1] is listed as “effective in delaying CIA”, the “delay of CIA” value ([2]; 1 mg/kg for 14 days from second collagen injection, day 21-35) is listed as “effective in delaying CIA” and the “disease after treatment ceased” value ([2]; as immune function returned to normal after treatment ceased) is listed as “increased in severity”.
